Test results from patent publication US20240165139A1, “GALACTOPYRANOSYL-CYCLOHEXYL DERIVATIVES AS E-SELECTIN ANTAGONISTS” (GLYCOMIMETICS, INC., priority 2017, published 2024).

biological target: E-selectin (Homo sapiens, UniProt P16581); assay: E-Selectin Activity - competitive binding assay (sLe^a polyacrylamide conjugate vs immobilized E-selectin/Ig chimera); conditions: concentration required to inhibit binding of sLe^a conjugate to immobilized E-selectin/Ig chimera by 50%
Protocol: The inhibition assay to screen for and characterize glycomimetic antagonists of E-selectin is a competitive binding assay, which allows the determination of IC50 values. E-selectin/Ig chimera was immobilized in 96 well microtiter plates by incubation at 37° C. for 2 hours. To reduce nonspecific binding, bovine serum albumin was added to each well and incubated at room temperature for 2 hours. The plate was washed and serial dilutions of the test compounds were added to the wells in the presence of conjugates of biotinylated, sLe^a polyacrylamide with streptavidin/horseradish peroxidase and incubated for 2 hours at room temperature.
To determine the amount of sLe^a bound to immobilized E-selectin after washing, the peroxidase substrate, 3,3′,5,5′ tetramethylbenzidine (TMB) was added. After 3 minutes, the enzyme reaction was stopped by the addition of H3PO4, and the absorbance of light at a wavelength of 450 nm was determined.

Sequence of E-selectin (P16581 22-610 limits assumed): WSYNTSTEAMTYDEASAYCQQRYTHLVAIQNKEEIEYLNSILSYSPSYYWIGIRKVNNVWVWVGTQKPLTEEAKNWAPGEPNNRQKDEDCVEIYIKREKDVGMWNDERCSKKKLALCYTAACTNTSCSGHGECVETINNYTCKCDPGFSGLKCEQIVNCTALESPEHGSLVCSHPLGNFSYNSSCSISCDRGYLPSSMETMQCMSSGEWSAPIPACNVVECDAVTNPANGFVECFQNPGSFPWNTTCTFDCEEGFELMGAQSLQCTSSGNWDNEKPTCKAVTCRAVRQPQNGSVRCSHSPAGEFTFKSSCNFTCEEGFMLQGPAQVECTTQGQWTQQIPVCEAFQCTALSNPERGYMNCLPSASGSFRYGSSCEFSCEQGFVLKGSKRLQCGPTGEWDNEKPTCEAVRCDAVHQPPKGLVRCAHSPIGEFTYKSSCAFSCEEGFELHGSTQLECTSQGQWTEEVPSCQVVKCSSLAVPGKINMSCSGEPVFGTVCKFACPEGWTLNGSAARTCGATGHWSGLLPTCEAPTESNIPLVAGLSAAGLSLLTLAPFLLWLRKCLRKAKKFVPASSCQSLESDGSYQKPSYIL

Row | Structure (SMILES) | IC50 [nM]
1 | CCC1CC(C(=O)NCCNC(=O)c2cn(CC(CO)(COS(=O)(=O)O)COS(=O)(=O)O)nn2)C[C@@H](O[C@@H]2O[C@@H](CO)[C@H](O)C(O[C@@H](CC3CCCCC3)C(=O)N3CCC3)C2NC(C)=O)[C@@H]1O[C@@H]1OC(C)[C@@H](O)[C@H](O)C1O (stereo partly drawn) [Compound 18] | 170
2 | CCC1CC(C(=O)NCCNC(=O)c2cn(CCCOS(=O)(=O)O)nn2)C[C@@H](O[C@@H]2O[C@@H](CO)[C@H](O)C(O[C@@H](CC3CCCCC3)C(=O)N3CCC3)C2NC(C)=O)[C@@H]1O[C@@H]1OC(C)[C@@H](O)[C@H](O)C1O (stereo partly drawn) [Compound 19] | 580
3 | CCC1CC(C(=O)NCCNC(=O)c2cn(CC(CO)(CO)CO)nn2)C[C@@H](O[C@@H]2O[C@@H](CO)[C@H](O)C(O[C@@H](CC3CCCCC3)C(=O)N3CCC3)C2NC(C)=O)[C@@H]1O[C@@H]1OC(C)[C@@H](O)[C@H](O)C1O (stereo partly drawn) [Compound 20] | 240
4 | CCC1CC(C(=O)NCCNC(=O)c2cn(CCCO)nn2)C[C@@H](O[C@@H]2O[C@@H](CO)[C@H](O)C(O[C@@H](CC3CCCCC3)C(=O)N3CCC3)C2NC(C)=O)[C@@H]1O[C@@H]1OC(C)[C@@H](O)[C@H](O)C1O (stereo partly drawn) [Compound 21] | 520
5 | CCC1CC(C(=O)NCCNC(=O)[C@@H](OS(=O)(=O)O)[C@@H](COS(=O)(=O)O)OS(=O)(=O)O)C[C@@H](O[C@@H]2O[C@@H](CO)[C@H](O)C(O[C@@H](CC3CCCCC3)C(=O)O)C2NC(C)=O)[C@@H]1O[C@@H]1OC(C)[C@@H](O)[C@H](O)C1O (stereo partly drawn) [Compound 24] | 190
6 | CCC1CC(C(=O)NCCNC(=O)[C@@H](OS(=O)(=O)O)[C@H](COS(=O)(=O)O)OS(=O)(=O)O)C[C@@H](O[C@@H]2O[C@@H](CO)[C@H](O)C(O[C@@H](CC3CCCCC3)C(=O)O)C2NC(C)=O)[C@@H]1O[C@@H]1OC(C)[C@@H](O)[C@H](O)C1O (stereo partly drawn) [Compound 25] | 660
7 | CCC1CC(C(=O)NCCNC(=O)CC(C)S(=O)(=O)O)C[C@@H](O[C@@H]2O[C@@H](CO)[C@H](O)C(O[C@@H](CC3CCCCC3)C(=O)O)C2NC(C)=O)[C@@H]1O[C@@H]1OC(C)[C@@H](O)[C@H](O)C1O (stereo partly drawn) [Compound 30] | 2780
8 | CCC1CC(C(=O)NCCNC(=O)CC(CS(=O)(=O)O)S(=O)(=O)O)C[C@@H](O[C@@H]2O[C@@H](CO)[C@H](O)C(O[C@@H](CC3CCCCC3)C(=O)O)C2NC(C)=O)[C@@H]1O[C@@H]1OC(C)[C@@H](O)[C@H](O)C1O (stereo partly drawn) [Compound 31] | 2360
9 | CCC1CC(C(=O)NCCNC(=O)CCCS(=O)(=O)O)C[C@@H](O[C@@H]2O[C@@H](CO)[C@H](O)C(O[C@@H](CC3CCCCC3)C(=O)O)C2NC(C)=O)[C@@H]1O[C@@H]1OC(C)[C@@H](O)[C@H](O)C1O (stereo partly drawn) [Compound 33] | 2120
10 | CCC1CC(C(=O)NCCNC(=O)CCC(=O)O)C[C@@H](O[C@@H]2O[C@@H](CO)[C@H](O)C(O[C@@H](CC3CCCCC3)C(=O)O)C2NC(C)=O)[C@@H]1O[C@@H]1OC(C)[C@@H](O)[C@H](O)C1O (stereo partly drawn) [Compound 35] | 720
11 | CCC1CC(C(=O)NCCNC(=O)CCCC(=O)O)C[C@@H](O[C@@H]2O[C@@H](CO)[C@H](O)C(O[C@@H](CC3CCCCC3)C(=O)O)C2NC(C)=O)[C@@H]1O[C@@H]1OC(C)[C@@H](O)[C@H](O)C1O (stereo partly drawn) [Compound 36] | 510
12 | CCC1CC(C(=O)NCCNC(=O)CCOCCOCCNC(=O)c2cn(C(COS(=O)(=O)O)(COS(=O)(=O)O)COS(=O)(=O)O)nn2)C[C@@H](O[C@@H]2O[C@@H](CO)[C@H](O)C(O[C@@H](CC3CCCCC3)C(=O)O)C2NC(C)=O)[C@@H]1O[C@@H]1OC(C)[C@@H](O)[C@H](O)C1O (stereo partly drawn) [Compound 46] | 192
